For assay [1], the target named is EGFR (Human), P00533 [Assessment of HCC827 (EGFR Del) Cell Proliferation].
For assay [2], the target named is EGFR (Human), P00533 [T790M/L858R]. Particulars: h1975.
Assay [3] concerns the target EGFR (human), P00533 [WT]. Particulars: a431.
Assay [4] concerns the target EGFR (human), P00533 [WT]. The settings on record: a549.
The target in assay [5] is EGFR (Human), P00533 [T790M/L858R].
Assay [6] addresses EGFR (human), P00533 [L858R].
In assay [7] the target is EGFR (human), P00533 [T790M].
Chain of EGFR (human), P00533 [T790M] (P00533 whole entry T790M, looked up): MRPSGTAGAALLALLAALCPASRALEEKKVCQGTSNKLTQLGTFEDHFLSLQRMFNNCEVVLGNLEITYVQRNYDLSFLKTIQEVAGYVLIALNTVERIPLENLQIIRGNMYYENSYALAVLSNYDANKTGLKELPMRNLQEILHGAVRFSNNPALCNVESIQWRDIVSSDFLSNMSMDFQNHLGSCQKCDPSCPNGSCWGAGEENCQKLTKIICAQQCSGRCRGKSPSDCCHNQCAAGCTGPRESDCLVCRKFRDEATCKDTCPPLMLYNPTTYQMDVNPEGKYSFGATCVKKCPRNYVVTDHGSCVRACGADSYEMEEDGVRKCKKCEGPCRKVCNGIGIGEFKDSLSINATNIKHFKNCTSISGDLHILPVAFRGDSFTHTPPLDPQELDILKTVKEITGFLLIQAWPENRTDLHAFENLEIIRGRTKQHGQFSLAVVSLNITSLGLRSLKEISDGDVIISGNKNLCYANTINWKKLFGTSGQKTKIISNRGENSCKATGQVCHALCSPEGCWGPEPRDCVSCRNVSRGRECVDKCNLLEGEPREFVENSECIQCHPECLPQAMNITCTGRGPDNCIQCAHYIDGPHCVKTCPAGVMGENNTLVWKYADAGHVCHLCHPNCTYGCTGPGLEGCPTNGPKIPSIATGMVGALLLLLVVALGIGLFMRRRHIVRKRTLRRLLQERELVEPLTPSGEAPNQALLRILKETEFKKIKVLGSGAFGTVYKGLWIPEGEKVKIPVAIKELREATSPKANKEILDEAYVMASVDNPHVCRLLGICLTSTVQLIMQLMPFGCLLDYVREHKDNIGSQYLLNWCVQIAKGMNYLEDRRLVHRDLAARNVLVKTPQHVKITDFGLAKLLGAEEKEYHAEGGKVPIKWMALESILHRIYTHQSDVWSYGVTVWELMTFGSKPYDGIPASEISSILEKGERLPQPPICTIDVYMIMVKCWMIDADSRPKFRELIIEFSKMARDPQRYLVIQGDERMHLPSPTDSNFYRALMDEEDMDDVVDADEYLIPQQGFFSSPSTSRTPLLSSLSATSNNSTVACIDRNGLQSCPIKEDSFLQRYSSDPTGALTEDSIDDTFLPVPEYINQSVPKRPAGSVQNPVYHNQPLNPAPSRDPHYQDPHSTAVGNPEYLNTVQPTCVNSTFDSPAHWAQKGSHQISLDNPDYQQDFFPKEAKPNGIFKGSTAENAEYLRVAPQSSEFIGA

Chain of EGFR (Human), P00533 [Assessment of HCC827 (EGFR Del) Cell Proliferation] (P00533 whole entry, looked up, stated change not applied): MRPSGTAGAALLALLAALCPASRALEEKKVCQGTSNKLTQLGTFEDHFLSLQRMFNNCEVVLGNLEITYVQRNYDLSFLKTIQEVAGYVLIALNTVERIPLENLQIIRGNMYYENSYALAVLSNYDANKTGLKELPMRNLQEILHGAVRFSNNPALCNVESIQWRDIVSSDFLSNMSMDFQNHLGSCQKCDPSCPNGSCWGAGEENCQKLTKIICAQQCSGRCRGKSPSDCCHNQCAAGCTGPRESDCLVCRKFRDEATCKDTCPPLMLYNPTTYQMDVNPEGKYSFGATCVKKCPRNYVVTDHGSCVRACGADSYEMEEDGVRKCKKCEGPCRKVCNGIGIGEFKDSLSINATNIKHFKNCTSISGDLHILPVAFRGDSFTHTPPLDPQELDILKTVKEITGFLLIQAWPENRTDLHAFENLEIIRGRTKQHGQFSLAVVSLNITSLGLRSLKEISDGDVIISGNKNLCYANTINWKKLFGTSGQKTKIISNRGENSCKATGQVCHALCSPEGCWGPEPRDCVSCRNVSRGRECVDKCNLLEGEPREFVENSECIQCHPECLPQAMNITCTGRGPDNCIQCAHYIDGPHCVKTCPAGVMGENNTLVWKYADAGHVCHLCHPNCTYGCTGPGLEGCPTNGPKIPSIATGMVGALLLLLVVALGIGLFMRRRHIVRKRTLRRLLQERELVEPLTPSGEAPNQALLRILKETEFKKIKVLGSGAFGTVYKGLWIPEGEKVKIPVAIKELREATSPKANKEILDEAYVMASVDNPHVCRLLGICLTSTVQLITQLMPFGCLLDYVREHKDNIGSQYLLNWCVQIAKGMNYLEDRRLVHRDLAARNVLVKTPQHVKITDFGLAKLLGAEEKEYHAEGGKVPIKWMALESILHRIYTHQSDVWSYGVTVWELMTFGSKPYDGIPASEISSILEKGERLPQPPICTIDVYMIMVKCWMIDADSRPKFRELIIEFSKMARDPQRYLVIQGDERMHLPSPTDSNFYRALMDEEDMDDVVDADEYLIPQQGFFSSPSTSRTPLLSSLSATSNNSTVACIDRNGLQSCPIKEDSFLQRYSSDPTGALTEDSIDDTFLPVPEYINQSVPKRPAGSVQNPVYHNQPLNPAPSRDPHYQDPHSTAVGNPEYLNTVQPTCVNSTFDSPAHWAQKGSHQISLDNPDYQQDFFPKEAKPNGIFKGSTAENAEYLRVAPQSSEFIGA
Chain of EGFR (human), P00533 [WT] (P00533 whole entry, looked up): as the sequence (P00533 whole entry, looked up, stated change not applied) above
Chain of EGFR (Human), P00533 [T790M/L858R] (P00533 whole entry T790M/L858R, looked up): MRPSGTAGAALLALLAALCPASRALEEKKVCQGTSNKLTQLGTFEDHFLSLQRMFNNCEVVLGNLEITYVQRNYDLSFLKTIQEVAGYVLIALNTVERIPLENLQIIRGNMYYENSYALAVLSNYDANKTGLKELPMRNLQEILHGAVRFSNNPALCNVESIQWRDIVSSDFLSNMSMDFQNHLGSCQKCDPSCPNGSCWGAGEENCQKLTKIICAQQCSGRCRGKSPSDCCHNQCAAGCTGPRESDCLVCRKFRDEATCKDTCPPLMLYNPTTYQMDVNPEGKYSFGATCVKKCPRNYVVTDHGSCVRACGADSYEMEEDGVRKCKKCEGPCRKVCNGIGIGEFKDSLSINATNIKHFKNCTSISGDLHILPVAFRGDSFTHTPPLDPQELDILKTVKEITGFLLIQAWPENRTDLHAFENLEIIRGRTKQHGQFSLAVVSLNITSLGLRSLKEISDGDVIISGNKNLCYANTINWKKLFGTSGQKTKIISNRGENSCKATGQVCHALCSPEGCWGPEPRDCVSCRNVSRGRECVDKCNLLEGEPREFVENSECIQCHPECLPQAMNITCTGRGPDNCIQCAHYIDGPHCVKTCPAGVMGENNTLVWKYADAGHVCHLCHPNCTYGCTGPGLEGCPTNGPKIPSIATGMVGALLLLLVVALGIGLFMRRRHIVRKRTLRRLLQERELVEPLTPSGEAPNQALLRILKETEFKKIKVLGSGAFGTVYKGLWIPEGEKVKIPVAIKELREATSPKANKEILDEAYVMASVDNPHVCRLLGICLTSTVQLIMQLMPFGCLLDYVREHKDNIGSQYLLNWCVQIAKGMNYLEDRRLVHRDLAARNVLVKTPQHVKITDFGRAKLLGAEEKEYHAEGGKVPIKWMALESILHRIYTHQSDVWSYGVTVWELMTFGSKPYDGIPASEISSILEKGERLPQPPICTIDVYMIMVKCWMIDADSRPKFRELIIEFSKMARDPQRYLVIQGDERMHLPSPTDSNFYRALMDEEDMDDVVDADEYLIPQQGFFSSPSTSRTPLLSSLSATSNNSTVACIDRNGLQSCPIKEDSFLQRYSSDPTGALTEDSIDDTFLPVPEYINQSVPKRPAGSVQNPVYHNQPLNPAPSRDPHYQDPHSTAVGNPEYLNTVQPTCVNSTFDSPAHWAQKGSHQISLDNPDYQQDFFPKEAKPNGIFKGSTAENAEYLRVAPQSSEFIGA

Consider `C=C(CN1CCOCC1)C(=O)Nc1cccc(Nc2ncc(Cl)c(Nc3ccccc3C(=O)C(=O)N(C)C)n2)c1`, for which the 50% inhibitory concentration (IC50) in assay [1] was determined as 30 nM; in assay [2], 10 nM; in assay [3] it was 100 nM; in assay [4], 40 nM.
For `C=CC(=O)Nc1cc(Nc2ncc(Cl)c(Nc3ccccc3C(=O)C(=O)N(C)C)n2)ccc1OC`, the IC50 in assay [1] came to 120 nM; in assay [2], 20 nM.
Turning to `C=CC(=O)Nc1cc(Nc2ncc(Cl)c(Nc3ccccc3C(=O)C(=O)N(C)C)n2)c(OC)cc1N1CCN(C)CC1`, the IC50 was 30 nM in assay [1], 50 nM in assay [2], 50 nM in assay [3] and 620 nM in assay [4].
For `C=CC(=O)Nc1cc(Nc2ncc(Cl)c(Nc3ccccc3C(=O)C(=O)N(C)C)n2)c(F)cc1OC`, the IC50 was found to be 1200 nM in assay [1] and 310 nM in assay [2].
Regarding `COc1cc(N2CCN(C(C)=O)CC2)ccc1Nc1ncc(Cl)c(Nc2ccccc2C(=O)C(=O)N(C)C)n1`, the half-inhibitory concentration (IC50) in assay [1] was 540 nM; in assay [2], 210 nM; in assay [3], 50 nM.
For the molecule `C=CC(=O)Nc1cccc(Nc2ncc(Cl)c(Nc3ccccc3C(=O)C(=O)NC)n2)c1`, the IC50 in assay [1] worked out at 270 nM; in assay [2] it was 100 nM.
For `COc1cc(N2CCN(C)CC2)ccc1Nc1ncc(Cl)c(Nc2ccccc2C(=O)C(=O)N2CCOCC2)n1` the same measures were 2360 nM and 1230 nM.
For `CNC(=O)C(=O)c1ccccc1Nc1nc(Nc2ccc(N3CCC(N(C)C)CC3)cc2OC)ncc1Cl` the same measures were 900 nM and 1130 nM.
For `COc1cc(N2CCC(N(C)C)CC2)ccc1Nc1ncc(Cl)c(Nc2ccccc2C(=O)C(=O)NO)n1` the same measures were 940 nM and 840 nM.
For the molecule `C=CC(=O)Nc1cccc(Nc2ncc(C(F)(F)F)c(Nc3ccccc3C(=O)C(N)=O)n2)c1`, the half-maximal inhibitory concentration (IC50) came to 530 nM in assay [1], 980 nM in assay [2] and 370 nM in assay [4].
As for `COc1cc(N2CCOCC2)ccc1Nc1ncc(Cl)c(Nc2ccccc2C(=O)C(=O)N(C)C)n1`, the IC50 in assay [1] is 1940 nM; in assay [2], 1950 nM.
For the molecule `CNC(=O)C(=O)c1ccccc1Nc1nc(Nc2ccc(N3CCN(C)CC3)c(OC)c2)ncc1Cl`, the IC50 in assay [1] came out at 870 nM; in assay [2], 150 nM; in assay [4], 2080 nM.
`C=CC(=O)Nc1cc(Nc2ncc(Cl)c(Nc3ccccc3C(=O)C(=O)NC)n2)ccc1OC`: the concentration for half-maximal inhibition (IC50) in assay [1] amounted to 450 nM; in assay [2] it was 90 nM.
For `C=CC(=O)Nc1cc(Nc2ncc(Cl)c(Nc3ccccc3C(=O)C(=O)NC)n2)c(F)cc1OC` the same measures were 1200 nM and 650 nM.
As for `COc1cc(Nc2ncc(Cl)c(Nc3ccccc3C(=O)C(=O)N(C)C)n2)ccc1F`, the IC50 in assay [1] was found to be 2330 nM.
`C=CC(=O)Nc1ccc(OC)c(Nc2ncc(Cl)c(Nc3ccccc3C(=O)C(=O)N(CC)CC)n2)c1`: the concentration for half-maximal inhibition (IC50) in assay [1] worked out at 50 nM; in assay [2], 10 nM; in assay [3] it was 750 nM.
With `C=CC(=O)Nc1cccc(Nc2ncc(Cl)c(Nc3ccccc3C(=O)C(=O)N(C)C)n2)c1`, the IC50 in assay [1] was found to be 70 nM; in assay [2], 10 nM; in assay [4], 640 nM.
Turning to `C=CC(=O)Nc1cc(Nc2ncc(Cl)c(Nc3ccccc3C(=O)C(=O)N(C)C)n2)c(OC)cc1F`, the IC50 came to 120 nM in assay [1] and 50 nM in assay [2].
As for `C/C=C/C(=O)Nc1ccc(OC)c(Nc2ncc(Cl)c(Nc3ccccc3C(=O)C(=O)N(C)C)n2)c1`, the figures for the 50% inhibitory concentration (IC50) in assay [1], in assay [2] and in assay [4] were 1050 nM, 310 nM and 1370 nM, respectively.
Take `C=CC(=O)Nc1ccc(OC)c(Nc2ncc(Cl)c(Nc3ccccc3C(=O)C(=O)N(C)C)n2)c1`: the IC50 in assay [1] came to 20 nM; in assay [2], 20 nM; in assay [3] it was 110 nM; in assay [4] it was 1580 nM.
In assay [2], `CNC(=O)C(=O)c1ccccc1Nc1nc(Nc2ccc(F)c(OC)c2)ncc1Cl` gave an IC50 of 640 nM.
As for `COc1cc(N2CCC(N(C)C)CC2)ccc1Nc1ncc(Cl)c(Nc2ccccc2C(=O)C(N)=O)n1`, the concentration for half-maximal inhibition (IC50) was found to be 2630 nM in assay [1], 4.08 nM in assay [5], 44.3 nM in assay [6] and 7.52 nM in assay [7].
Consider `COc1cc(N2CCN(C)CC2)ccc1Nc1ncc(Cl)c(Nc2ccccc2C(=O)C(=O)N(C)C)n1`, for which the results for the half-maximal inhibitory concentration (IC50) in assay [1] and in assay [2] were 1630 nM and 810 nM, respectively.
Consider `COc1cc(N2CCC(N(C)C)CC2)ccc1Nc1ncc(Cl)c(Nc2ccccc2C(=O)C(=O)N(C)C)n1`, for which the values for the IC50 in assay [1], in assay [2] and in assay [3] were 1230 nM, 860 nM and 260 nM, respectively.
The matching figures for `C=C(CN(C)CCN(C)C)C(=O)Nc1ccc(OC)c(Nc2ncc(Cl)c(Nc3ccccc3C(=O)C(=O)N(C)C)n2)c1`: 20 nM, 10 nM and 210 nM.
`C=CC(=O)N1CCC(NC(=O)C(=O)c2ccccc2Nc2nc(Nc3ccc(F)c(OC)c3)ncc2Cl)CC1` came in with a concentration for half-maximal inhibition (IC50) in assay [2] of 190 nM.
For `COc1cc(Nc2ncc(Cl)c(Nc3ccccc3C(=O)C(=O)N(C)C)n2)ccc1N1CCC(N(C)C)CC1`, the concentration for half-maximal inhibition (IC50) in assay [1] is 20 nM; in assay [2] it was 10 nM; in assay [3], 10 nM; in assay [4] it was 1890 nM.
`COc1cc(N2CCC(N(C)C)CC2)ccc1Nc1ncc(Cl)c(Nc2ccccc2C(=O)C(=O)N2CCOCC2)n1` gave an IC50 in assay [2] of 2860 nM.

In general, IC50 refers to the point on the concentration scale where inhibition reaches its midpoint. Read a low IC50 as greater potency.

For the origin of these results see the Kinase Knowledgebase extract (Sharma et al. 2016).
